Laboratory results taken from patent publication US9145372B2, “Pyridazine derivatives, compositions and methods for treating cognitive impairment” (AGENEBIO, INC., priority 2010, dated 2015).

How the values were obtained:
[1] = target: T1, GABAA α5β3γ2 subtype receptor (Homo sapiens, UniProt P18507+P31644); assay: GABA-gated Cl- current potentiation in Xenopus oocytes expressing GABAA α5β3γ2 (TEVC); format: cell-based
T1 construct: myc-His (vector-encoded); expressed in transfected cells; host or cells: Xenopus laevis oocytes injected with cDNAs
T1 sequence (P31644 32-462): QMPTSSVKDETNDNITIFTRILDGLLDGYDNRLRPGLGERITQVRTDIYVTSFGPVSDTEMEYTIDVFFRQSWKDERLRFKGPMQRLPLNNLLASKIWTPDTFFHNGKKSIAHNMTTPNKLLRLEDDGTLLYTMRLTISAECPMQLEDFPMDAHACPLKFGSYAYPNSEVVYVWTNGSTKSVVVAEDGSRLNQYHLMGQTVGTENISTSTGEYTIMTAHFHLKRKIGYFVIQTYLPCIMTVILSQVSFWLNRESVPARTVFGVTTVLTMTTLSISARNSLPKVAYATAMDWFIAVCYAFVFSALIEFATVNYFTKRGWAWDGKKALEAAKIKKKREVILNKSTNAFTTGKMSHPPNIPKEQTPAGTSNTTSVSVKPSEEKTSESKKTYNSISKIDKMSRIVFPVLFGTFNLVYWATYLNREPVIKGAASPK
T1 sequence (P28472 26-473 partner): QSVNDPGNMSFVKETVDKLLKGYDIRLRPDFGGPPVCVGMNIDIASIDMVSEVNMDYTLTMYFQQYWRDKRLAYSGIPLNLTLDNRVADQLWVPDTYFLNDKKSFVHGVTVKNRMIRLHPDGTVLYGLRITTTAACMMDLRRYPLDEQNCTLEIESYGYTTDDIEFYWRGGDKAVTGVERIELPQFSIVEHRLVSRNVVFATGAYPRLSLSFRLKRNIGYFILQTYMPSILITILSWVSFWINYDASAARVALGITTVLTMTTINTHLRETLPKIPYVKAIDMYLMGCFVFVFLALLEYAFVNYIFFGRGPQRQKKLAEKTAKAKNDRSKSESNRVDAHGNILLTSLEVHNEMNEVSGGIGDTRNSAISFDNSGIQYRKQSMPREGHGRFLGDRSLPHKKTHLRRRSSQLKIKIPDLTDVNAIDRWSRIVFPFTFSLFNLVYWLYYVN
T1 sequence (P18507 40-467 limits assumed): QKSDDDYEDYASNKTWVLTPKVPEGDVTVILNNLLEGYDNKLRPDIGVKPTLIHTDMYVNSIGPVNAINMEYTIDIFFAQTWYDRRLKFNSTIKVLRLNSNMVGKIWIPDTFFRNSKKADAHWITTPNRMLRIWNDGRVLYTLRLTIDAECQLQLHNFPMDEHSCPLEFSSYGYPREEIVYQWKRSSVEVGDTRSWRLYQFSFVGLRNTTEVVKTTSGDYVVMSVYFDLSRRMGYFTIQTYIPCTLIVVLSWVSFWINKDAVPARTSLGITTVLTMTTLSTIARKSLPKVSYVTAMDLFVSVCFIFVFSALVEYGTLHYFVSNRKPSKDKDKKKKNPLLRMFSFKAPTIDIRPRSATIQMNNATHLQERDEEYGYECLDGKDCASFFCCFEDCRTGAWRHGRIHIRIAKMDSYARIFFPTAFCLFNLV
From the text: (§1) Step 1: Establish Clones of GABAAR Subunits (α5, β3, γ2, α1, α2 and α3) and Prepare the Corresponding cRNAs: Human clones of GABAA-R α5, β3, γ2, α1, α2 and α3 subunits are obtained from commercial resources (e.g., OriGene, http://www.origene.com and Genescript, http://www.genescript.com). These clones are engineered into pRC, pCDM, pcDNA, and pBluescript KSM vector (for oocyte expression) or other equivalent expression vectors. Conventional transfection agents (e.g., FuGene, Lipofectamine 2000, or others) are used to transiently transfect host cells.
Adult female Xenopus laevis frogs were purchased from Nasco (Fort Atkinson, Wis.). […] All chemicals used were of reagent grade. […] Stock solutions of Diazepam, Flumazenil and compounds of the present invention were prepared in dimethyl sulfoxide (DMSO) and then diluted to an appropriate concentration with the extracellular solution just before use. To avoid adverse effects from DMSO exposure, the final concentration of DMSO was not higher than 0.3% (v/v).
Upon conclusion of compound testing and successful washout, a 1.0 μM Diazepam was tested and used for comparative activity on the two GABAAR subtypes.
Other concentrations of the test compound may also be tested following the same protocol.
Results are expressed as mean±SEM.

[2] = target: T2, GABAA α1 receptors (α1β2γ2) (Homo sapiens, UniProt P14867+P18507); assay: GABA-gated Cl- current in Xenopus oocytes expressing GABAA α1β2γ2 (TEVC), off-target activity; format: cell-based; conditions: concentration response 0.01-100 μM; FIGS. 1(A)-(D)
T2 construct: expressed in transfected cells; host or cells: Xenopus laevis oocytes injected with cDNAs
T2 sequence (P14867 28-456): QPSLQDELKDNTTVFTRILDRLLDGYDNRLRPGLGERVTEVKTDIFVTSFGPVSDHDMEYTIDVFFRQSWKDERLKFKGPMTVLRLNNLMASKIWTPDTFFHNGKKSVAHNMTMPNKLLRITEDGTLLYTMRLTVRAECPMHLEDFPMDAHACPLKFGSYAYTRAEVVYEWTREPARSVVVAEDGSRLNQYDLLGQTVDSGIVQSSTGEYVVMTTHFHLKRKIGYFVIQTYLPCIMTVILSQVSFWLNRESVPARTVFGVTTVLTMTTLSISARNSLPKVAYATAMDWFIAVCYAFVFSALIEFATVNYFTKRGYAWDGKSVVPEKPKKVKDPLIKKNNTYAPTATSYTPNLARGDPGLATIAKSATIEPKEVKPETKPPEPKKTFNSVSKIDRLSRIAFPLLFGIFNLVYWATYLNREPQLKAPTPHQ
T2 sequence (P47870 25-512 partner limits assumed): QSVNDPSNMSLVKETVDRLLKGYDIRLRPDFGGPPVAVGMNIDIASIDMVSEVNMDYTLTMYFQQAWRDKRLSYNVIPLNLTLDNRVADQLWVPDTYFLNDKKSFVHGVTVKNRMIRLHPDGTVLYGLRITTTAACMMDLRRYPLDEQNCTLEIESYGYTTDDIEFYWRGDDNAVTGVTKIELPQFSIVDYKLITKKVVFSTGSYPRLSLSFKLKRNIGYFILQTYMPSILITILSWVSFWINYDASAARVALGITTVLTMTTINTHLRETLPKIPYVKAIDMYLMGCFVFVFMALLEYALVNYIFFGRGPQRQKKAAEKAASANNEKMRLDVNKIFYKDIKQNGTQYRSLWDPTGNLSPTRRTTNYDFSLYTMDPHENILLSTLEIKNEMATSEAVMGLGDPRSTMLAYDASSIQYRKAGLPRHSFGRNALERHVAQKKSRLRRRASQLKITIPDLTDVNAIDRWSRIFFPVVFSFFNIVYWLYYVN
T2 sequence (P18507 40-467 limits assumed): T1 sequence (P18507 40-467 limits assumed)
From the text: as §1
Xenopus oocytes were isolated according to previously published procedures (see, e.g., Goldin et al. Methods Enzymol. 207:266-279 (1992)). The isolated Xenopus oocytes were injected with GABAAR cDNAs (1:1:1 ratio for a total volume of 1 ng of α1βγ2 or α5β3γ2) cloned into mammalian expression vectors. In particular, α1, β2, γ2 were cloned into pcDNA3.1. and α5 and β3 were cloned into pcDNA3.1 myc-His. Vectors were verified by partial sequencing (DNA Core Facility, University of Southern California, USA). After injection, oocytes were stored in incubation medium (Modified Barth's Saline (MBS) supplemented with 2 mM sodium pyruvate, 0.5 mM theophylline and 50 mg/L gentamycin), in petri dishes (VWR, San Dimas, Calif.). All solutions were sterilized by passage through 0.22 μM filters. […] Oocytes were used in experiments for up to 5 days after injection.
A high-throughput two-electrode voltage clamp (TEVC) system (OpusXpress A6000; Molecular Devices, Union City, Calif.), which automates the impalement of oocytes, fluid delivery and current recording from 8 oocytes in parallel, was used to carry out all electrophysiological recordings.
Xenopus Oocytes expressing GABAA-R α5β3γ2 or α1β2γ2 subtype, as prepared in section (A) above, were placed in 8 chambers of OpusXpress and perfused by MBS at 3 mL/min. Glass electrodes back-filled with 3 M KCl (0.5-3 megaohms) were used. Membrane potential of oocytes was voltage-clamped at −60 mV. Oocytes with holding current larger than 0.5 μA were discarded.
Data for each experimental point were obtained from 4 or more Xenopus oocytes and from at least two different frogs. The n refers to the number of Xenopus oocytes tested. Results are expressed as mean±SEM. […] Prism (GraphPAD Software, San Diego, Calif.) and Excel were used to perform curve fitting and statistical analyses.

positive allosteric modulation of GABA at GABAA α5 receptors ([1]; concentration response 0.01-100 μM, FIGS. 1(A)-(D)): strong positive allosteric modulation
activation at 1 µM ([1]; read-out: GABA α5 EC50 % potentiation): 30.5%
Compound: COC(=O)c1coc(-c2c(-c3ccccc3)cnnc2-c2cccc(Cl)c2)n1 [Compound 27]
positive allosteric modulation at GABAA α1 receptors [2]: markedly reduced positive allosteric modulation
